# Test results published in patent US9765018B2, “IDO inhibitors” (BRISTOL-MYERS SQUIBB COMPANY, priority 2013, dated 2017).
# Target: IDO (Homo sapiens (Human), UniProt P14902)
# Assay: LLE_IDO_ABS_DR (IDO assay, method not described)
# IDO, sequence (P14902 whole entry): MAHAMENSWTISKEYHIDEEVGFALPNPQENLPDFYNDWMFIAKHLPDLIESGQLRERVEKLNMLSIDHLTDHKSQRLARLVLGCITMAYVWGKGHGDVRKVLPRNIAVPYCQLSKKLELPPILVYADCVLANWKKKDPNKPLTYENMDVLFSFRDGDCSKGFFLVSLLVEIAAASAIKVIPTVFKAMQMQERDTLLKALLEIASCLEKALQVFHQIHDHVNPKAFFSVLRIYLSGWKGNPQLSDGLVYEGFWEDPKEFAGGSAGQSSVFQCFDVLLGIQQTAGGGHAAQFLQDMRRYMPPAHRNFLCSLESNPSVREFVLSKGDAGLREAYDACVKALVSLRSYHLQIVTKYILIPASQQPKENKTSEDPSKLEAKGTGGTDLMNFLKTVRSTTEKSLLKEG
row,SMILES,IC50
1,CCC(Oc1ccc(-c2cc(F)ccc2C(=O)O)cc1NC(=O)Nc1ccc(C)cc1)c1ccccc1 (stereo not drawn) [Example 268],690 nM
2,CCCCC(Oc1ccc(-c2cc(F)ccc2C(=O)O)cc1NC(=O)Nc1ccc(C)cc1)C1CCCCC1 (stereo not drawn) [Example 269],1100 nM
3,CCC[C@@H](Oc1ccc(-c2cc(F)ccc2C(=O)O)cc1NC(=O)Nc1ccc(C)cc1)c1ccccc1 [Example 270],20 nM
4,CCC(Oc1ccc(-c2ccccc2-c2nnn[nH]2)cc1NC(=O)Nc1ccc(C)cc1)c1ccccc1 (stereo not drawn) [Example 271],30 nM
5,CCCCC(Oc1ccc(-c2ccccc2-c2nnn[nH]2)cc1NC(=O)Nc1ccc(C)cc1)C1CCCCC1 (stereo not drawn) [Example 272],100 nM
6,CCC[C@@H](Oc1ccc(-c2ccccc2-c2nnn[nH]2)cc1NC(=O)Nc1ccc(C)cc1)c1ccccc1 [Example 273],40 nM
7,CCC[C@H](Oc1ccc(-c2ccccc2-c2nnn[nH]2)cc1NC(=O)Nc1ccc(C)cc1)c1ccccc1 [Example 274],3510 nM
8,CCC[C@H](Oc1ccc(-c2cc(F)ccc2C(=O)O)cc1NC(=O)Nc1ccc(C)cc1)c1ccccc1 [Example 275],1740 nM
9,"CCCOc1c(NC(=O)Nc2ccc(C3CC3)cc2)cc(-c2ccccc2-c2nnn[nH]2)cc1C1CC1 [Example 276, 1-(5-cyclopropyl-4-propoxy-2′-(1H-tetrazol-5-yl)-[1,1′-biphenyl]-3-yl)-3-(4-cyclopropylphenyl)urea]",690 nM
10,O=C(Nc1ccc(F)cc1F)Nc1cc(-c2ccccc2-c2nnn[nH]2)cc(CC2CC2)c1OCC1CC1 [Example 277],30 nM
11,O=C(Nc1ccccc1F)Nc1cc(-c2cc(F)ccc2C(=O)O)cc(/C=C/C=C(F)F)c1OCCC(F)(F)F [Example 281],820 nM
12,O=C(Nc1ccccc1F)Nc1cc(-c2cc(F)ccc2C(=O)O)cc(C/C=C/C(F)(F)F)c1OCCC(F)(F)F [Example 282],1380 nM
13,CC/C=C/Cc1cc(-c2ccccc2-c2nnn[nH]2)cc(NC(=O)Nc2ccc(C)cc2)c1OCCC [Example 285],140 nM
14,CCCC(CCC)Oc1c(Br)cc(-c2ccccc2-c2nnn[nH]2)cc1NC(=O)Nc1ccc(C)cc1 [Example 286],470 nM
15,C=CC(c1ccccc1)c1cc(-c2ccccc2-c2nnn[nH]2)cc(NC(=O)Nc2ccc(C)cc2)c1OCCC(F)(F)F (stereo not drawn) [Example 290],1490 nM
16,C=CC(c1ccccc1)c1cc(-c2ccccc2C(=O)O)cc(NC(=O)Nc2ccc(C)cc2)c1OC1CCC(F)(F)CC1 (stereo not drawn) [Example 291],730 nM
17,C=CC(c1ccccc1)c1cc(-c2cc(F)ccc2C(=O)O)cc(NC(=O)Nc2ccc(C)cc2)c1OC1CCC(F)(F)CC1 (stereo not drawn) [Example 292],3350 nM
18,Cc1ccc(NC(=O)Nc2cc(-c3ccccc3C(=O)O)ccc2OCc2ccccc2)cc1 [Example 294],520 nM
19,C=CC(c1ccccc1)c1cc(-c2ccccc2-c2nnn[nH]2)cc(NC(=O)Nc2ccc(C)cc2)c1OCC(C)C (stereo not drawn) [Example 299],100 nM
20,Cc1ccc(NC(=O)Nc2cc(-c3cc(F)ccc3C(=O)O)cc(C/C=C/C(F)(F)F)c2OCCC(F)(F)F)cc1 [Example 302],100 nM
21,Cc1ccc(NC(=O)Nc2cc(-c3ccccc3C(=O)O)cc(C/C=C/C(F)(F)F)c2OCCC(F)(F)F)cc1 [Example 303],160 nM
22,O=C(Nc1ccccc1F)Nc1cc(-c2ccccc2C(=O)O)cc(/C=C/C=C(F)F)c1OCCC(F)(F)F [Example 305],820 nM
23,CCCC(Oc1ccc(-c2cc(F)ccc2C(=O)O)cc1NC(=O)Nc1ccc(C)cc1)c1ccccc1Cl (stereo not drawn) [Example 306],5450 nM
24,Cc1ccc(NC(=O)Nc2cc(-c3cc(F)ccc3C(=O)O)ccc2OC(CCN2CCOCC2)c2ccccc2)cc1 (stereo not drawn) [Example 307],40 nM
25,CCCC(Oc1ccc(-c2ccccc2-c2nnn[nH]2)cc1NC(=O)Nc1ccc(C)cc1)c1ccc(Cl)cc1 (stereo not drawn) [Example 308],860 nM
26,Cc1ccc(NC(=O)Nc2cc(-c3cc(F)ccc3C(=O)O)ccc2OC(CCC(F)(F)F)c2ccccc2)cc1 (stereo not drawn) [Example 309],90 nM
27,Cc1ccc(NC(=O)Nc2cc(-c3ccccc3-c3nnn[nH]3)ccc2OC(CCC(F)(F)F)c2ccccc2)cc1 (stereo not drawn) [Example 310],1720 nM
